How the values were obtained:
[1] = system: G3BP1 knockdown HT22 cells; assay: Activity of PB3 in G3BP1 knockdown (siRNA) HT22 cells; assay type: cell-based; details: PB3 50 µM
Method: The CCK‐8 assay kit (Yeasen, China) was used to assess cell viability. All operations were performed following instructions. HT22 cells were seeded into the 96‐well plate (3000 cells per well). The cells were cultured at 37 °C with 5% CO2 in a humidified incubator overnight. After 6 h of OGD, the medium was replaced by DMEM/F‐12 with 10% FBS and 1% penicillin/streptomycin containing PB3 or other compounds and kept in a humidified 5% CO2, 37 °C incubator for 24 h. Then, the cells were washed with PBS, the medium was replaced with DMEM/F‐12 with 10% FBS and 1% penicillin/streptomycin containing 10% CCK‐8 solution, and incubated for 1 h at 37 °C. The absorbance was assessed by a Synergy H1 multi‐mode microplate reader (BioTek, USA) at 450 nm.
Apoptosis level was evaluated by TUNEL staining and flow cytometry. For TUNEL staining, HT22 cells were treated with 4% paraformaldehyde for 15 min. […] Red fluorescence was utilized to identify apoptotic cells, while 4′, 6‐diamidino‐2‐phenylindole (DAPI) was used to counterstain the nuclei. The fluorescence microscope (Carl Zeiss, Germany) was used to obtain images. For flow cytometry, apoptotic cells were determined with the Annexin V‐Alexa Fluor 488/PI apoptosis detection kit (Yeasen, China) by following the instructions. […] Cell apoptosis was immediately determined by Cytek Aurora (Cytek Biosciences, USA). […]

[2] = system: G3BP1; assay: Immunoblotting of G3BP1 protein level; assay type: cell-based
Method: Cells and tissues were homogenized in RIPA buffer (Beyotime, China) containing protease inhibitors (Biovision, USA) on ice for 30 min. After centrifugation (13000 r min^−1, 4 °C) for 10 min, the resulting supernatant was collected. The protein concentrations were determined by a BCA protein assay kit (Thermo Scientific, USA). After separating a 10% sodium dodecyl sulfate (SDS)‐polyacrylamide gel, protein on the gel was then transferred onto nitrocellulose membranes (Merck, USA), which were blocked with 5% bovine serum albumin for 1 h to prevent non‐specific binding. Then, the anti‐caspase 3 antibody (catalog no. 9662, Cell Signaling Technology, USA), anti‐Bcl‐2 antibody (catalog no. GTX100064, GeneTex, USA), anti‐G3BP1 antibody (catalog no. 66486‐1‐Ig, Proteintech, China), anti‐β‐tubulin antibody (catalog no. 66240‐1‐Ig, Proteintech, China), and anti‐β‐actin antibody (catalog no. 66009‐1‐Ig, Proteintech, China) were used for treating the membrane overnight at 4 °C. Bound antibodies were detected with the species‐appropriate horseradish peroxidase‐labeled secondary antibody (Jackson ImmunoResearch, USA) using ECL reagents (ShareBio, China). Protein‐specific signals were detected using a Bio‐Rad Imager (Bio‐Rad, USA), and the bands were quantified by densitometric analysis software (ImageJ). β‐tubulin or β‐actin was used as a loading control.

Compound: Oc1cc(O)c2c(c1)O[C@H](c1ccc(O)c(O)c1)[C@@H](O)[C@@H]2c1c(O)cc(O)c2c1O[C@H](c1ccc(O)c(O)c1)[C@@H](O)C2 [Compound 1, procyanidin B3]
- cell viability, effect of G3BP1 knockdown [1]: inhibited the neuroprotective effects
- rate of TUNEL‐positive cells [1]: not significantly changed
- protein level of G3BP1 [2]: did not perturb the protein level of G3BP1

— publication PMC12677652, “Procyanidin B3 and Its Derivatives Alleviate Neuronal Injury by Targeting G3BP1 for Ischemic Stroke Therapy” (Advanced Science, 2025)
